{"source": "patent US12115393B2", "about": "“Methods for setting parameters of a neurostimulation device and associated devices” (INSTITUT NATIONAL DE LA SANTE ET DE LA RECHERCHE MEDICALE …, priority 2019, dated 2024)", "assay_type_in_all_cases": "in vivo", "key": {"[1]": {"tested_on": "unpredictable chronic mild stress (UCMS) mouse model", "test": "open-field task in UCMS mice", "settings": "15 mg/kg fluoxetine in drinking water from day 7, tested day 43, p<0.10", "procedure": "(§1) From day 7 on, mice from the Veh (vehicle) and the Flx (fluoxetine) groups were chronically treated through drinking water respectively with water alone (n=12) or 15 mg/kg fluoxetine (n=12).\n(§2) The main cohort of fifty-three mice followed the UCMS regimen from day 0 to day 35, as described previously. Briefly, mice were isolated in 24×11×12 cm cages without environmental enrichment and submitted to daily random socio-environmental stressors including: exposition to another mouse bedding, removal of sawdust, contention and light dark cycle perturbations.\nPharmacological treatments (15 mg/kg fluoxetine) were given from day 7 on to achieve chronic administration at week 5. […]\n(§3) Behaviors were assessed during the dark phase of the light-dark cycle, i.e., the active, awoken phase for the animals. The effects of ultrasound neurostimulation were assessed against those of the fluoxetine treatment from day 38 to day 43 with 1) the nest-building test, 2) the reward-maze test and 3) the open field task.\n3. […] The latency to reach the center area (d=10 cm) and the number of center-crossings were measured for up to 5 min. The movements of the mice were recorded and tracked with the software EthoVision XT (Noldus Information Technology, Netherlands) to generate individual heat maps, color-coded for position frequencies over the duration of the test."}, "[2]": {"tested_on": "unpredictable chronic mild stress (UCMS) mouse model", "test": "reward-maze test in UCMS mice", "procedure": "as §1, §2\n(§4) Pharmacological treatments (15 mg/kg fluoxetine) were given from day 7 on to achieve chronic administration at week 5. The chronic ultrasound neurostimulation treatment was given during the fifth week of the UCMS (stressors: 08:00-12:00 AM, treatment: 02:00 PM). […]\nas §3\n2. […] The latency to reach the reward and its consumption were measured for up to 5 min."}, "[3]": {"tested_on": "unpredictable chronic mild stress (UCMS) mouse model", "test": "nest-building test in UCMS mice", "settings": "15 mg/kg fluoxetine chronically through drinking water from day 7, tested day 38, score max. 5", "procedure": "as §1, §2, §4, §3\n1. […] After 5 hours in standard condition, the state of the nest, built in cotton, was scored on a predefined scale. […]"}}}
{"smiles": "CNCCC(Oc1ccc(C(F)(F)F)cc1)c1ccccc1", "note": "(stereo not shown) [fluoxetine]", "values": [{"measurement": "number of center-crossings", "setting": "[1]", "value": "did not significantly affect"}, {"measurement": "consumption of the reward", "setting": "[2]; 15 mg/kg fluoxetine in drinking water from day 7, tested day 40, Veh vs Flx p=0.033", "value": "modified"}, {"measurement": "latency to travel across the apparatus and reach the food reward", "setting": "[2]; 15 mg/kg fluoxetine in drinking water from day 7, tested day 40, Veh vs Flx p=0.042", "value": "decreased three-fold"}, {"measurement": "nest-building score (ability to build a nest within 5 hours)", "setting": "[3]", "value": "no effect"}]}
